Laboratory results as given in PubChem BioAssay (NCI).
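Five compound concentrations were applied to cells in 96-well plates for 48 hours; endpoints were derived by simple linear interpolation of the resulting dose-response curve. GI50 = concentration required for 50% inhibition of growth. TGI marks complete inhibition of growth.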

Legend:
Test in all cases: NCI-60 cell line screen, 48 h
[1] = system: SF-295 CNS
[2] = system: OVCAR-8 ovarian
[3] = system: HT29 colon
[4] = system: NCI-H23 lung
[5] = system: SN12C renal
[6] = system: NCI/ADR-RES ovarian
[7] = system: OVCAR-3 ovarian
[8] = system: NCI-H522 lung
[9] = system: COLO 205 colon
[10] = system: LOX IMVI melanoma

Row | Compound | GI50 [1] [µM] | TGI [1] [µM] | GI50 [2] [µM] | TGI [2] [µM] | GI50 [3] [µM] | TGI [3] [µM] | GI50 [4] [µM] | TGI [4] [µM] | GI50 [5] [µM] | TGI [5] [µM] | GI50 [6] [µM] | TGI [6] [µM] | GI50 [7] [µM] | TGI [7] [µM] | GI50 [8] [µM] | TGI [8] [µM] | GI50 [9] [µM] | TGI [9] [µM] | GI50 [10] [µM] | TGI [10] [µM]
1 | CC1=C(/C=C/C(C)=C\C=C\C(C)=C\C(=O)Nc2ccc3c(c2)OCO3)C(C)(C)CCC1 | 31 | > 100 | 93.1 | > 100 | 11.9 | > 100 | 17.7 | > 100 | > 100 | > 100 | 73 | > 100 | > 100 | > 100 | 14.1 | > 100 | 37.8 | > 100 | 16.8 | > 100
2 | CN(C)CCCn1c2c(c3cnccc3c1=O)C(=O)c1ccccc1-2 | 0.737 | 5.59 | 0.313 | 44.1 | 0.242 | 11.3 | 0.55 | 3.73 | 0.289 | 4.35 | 0.483 | 10.8 | 1.1 | 5.47 | 0.312 | 7.24 | 0.269 | 3.66 | 0.303 | 4.18
3 | Nc1ccc2c(SCCSc3c4ccccc4nc4cc(N)ccc34)c3ccccc3nc2c1 |  | > 100 |  | > 100 |  | > 100 |  | > 100 |  | > 100 |  | > 100 |  | > 100 |  | > 100 |  | > 100 |  | > 100
4 | Nc1ccccc1C#C/C=C\C#Cc1ccccc1C(F)(F)F | 0.958 | 3.62 | 1.32 | 20.6 | 3.58 | > 100 | 0.397 | 5.17 | 0.399 | 9.45 | 0.302 | 2.89 | 0.673 | 1.89 | 2.07 | 34.3 | 1.92 | > 37.2 | 0.441 | 11.5
5 | N#Cc1c(C(=O)c2ccccc2)cnn1-c1ccccc1 | > 25 | > 25 | > 25 | > 25 | > 25 | > 25 | > 25 | > 25 | > 25 | > 25 | > 25 | > 25 | > 25 | > 25 | > 25 | > 25 | > 25 | > 25 | > 25 | > 25
6 | C=C1[C@@H](C)[C@H]2[C@H](Cc3ccccc3)NC(=O)[C@]23OC(=O)/C=C/[C@H](O)CCC[C@@H](C)C/C=C/[C@H]3[C@@H]1O |  | 53.5 |  | 66.4 |  | > 100 |  | 89.7 |  | > 100 |  | 91.1 |  | 91.4 |  | > 92.2 |  | > 100 |  | 39.6
7 | O=C(O)c1cc2ccccc2c(O)c1O |  | 29.4 |  | 27.4 |  | 49.3 |  | 22.5 |  | 31.5 |  | 41.5 |  | 28.9 |  | 28.9 |  | 31.4 |  | 14.9
8 | Cc1ccc(C(=O)Nc2ccc(CN3CCN(C)CC3)c(C(F)(F)F)c2)cc1C#Cc1cnc(N)cc1C#N | 0.315 | 1.16 | 0.224 | 1.15 | 0.051 | 0.729 | 0.34 | 1.28 | 0.0918 | 0.733 | 0.27 | 1.68 | 0.211 | 1.01 | 0.176 | 0.925 | 0.0901 | 0.714 | 0.0394 | 0.522
9 | NC(=O)c1cnc(N[C@@H]2CCCC[C@@H]2N)nc1Nc1cccc(-n2nccn2)c1 | 13.3 | 26.7 | 6.6 | 20 | 2.82 | 11.5 | 3.24 | 17.2 | 4.13 | 17.6 | 14.6 | 30.6 | 5.94 | 18.4 | 4.14 | 17.5 | 1.81 | 4.56 | 2.11 | 6.12
10 | COc1ccccc1-[n+]1cc(-c2ccc(-c3ccccc3)cc2)n2c1CCCCC2 | 0.359 | 4.03 | 0.528 | 15.9 | 0.281 | 10.2 | 0.101 | 10.1 | 0.288 | 10.5 | 19.8 | 60.4 | 0.233 | 12.4 | 0.169 | 9.03 | 0.236 | 2.62 | 0.322 | 8.1
11 | CCCCn1c2cc(OCc3cn(-c4ccc(Cl)cc4)nn3)ccc2c2ccnc(C)c21 | 5.03 | 17.8 | 6.42 | 23.9 | 6.25 | > 33.3 | 7.23 | 26.6 | 8.16 | > 33.3 | 6.98 | 29.7 | 6.41 | 18.2 | 4.72 | 13.3 | 5.76 | 14.4 | 5.91 | 12.3
12 | COc1ccc(-n2c(SCc3cc(OC)c(OC)c(OC)c3)nc3ccc(C)cc3c2=O)c(OC)c1 | 3.22 | > 100 | 5.14 | > 100 | 4.04 | > 100 | 5.24 | > 100 | 5.1 | > 100 | 2.68 | > 100 | 2.84 | 7.04 | 3.58 | 72.7 | 3.87 | 11.9 | 5.23 | > 100
13 | CC12CCC3C(CC=C4CC(O)CCC43C)C1C/C(=C\N1CCCC1)C2=O (stereo not given) | 57.2 | > 100 | > 100 | > 100 | > 100 | > 100 | > 100 | > 100 | 85 | > 100 | > 100 | > 100 | 42.6 | > 100 | > 100 | > 100 | > 100 | > 100 | > 100 | > 100
